Results on four compounds are retold here after patent US20080269233A1, “Piperidinoyl-Pyrrolidine and Piperidinoyl-Piperidine Compounds” (priority 2006, published 2008).

One may read the EC50 as the concentration giving half of the maximal effect.

One data set concerns the target MC4 receptor (Homo sapiens, UniProt P32245). As to the kind of experiment: MC4 receptor functional potency (EC50), Protocol E of WO 2005/077935. The format is cell-based. The conditions noted are these: read-out: functional potency at the MC4 receptor expressed as an EC50. As to the method:
MC5 and MC4 activity was determined as described by assay protocols D and E, respectively, in US2005/0176772 (pages 28-30).

Data set [1] relates to men with psychogenic and organic ED. The conditions noted are these: cited from earlier work.

Sequence of MC4 receptor (P32245 whole entry): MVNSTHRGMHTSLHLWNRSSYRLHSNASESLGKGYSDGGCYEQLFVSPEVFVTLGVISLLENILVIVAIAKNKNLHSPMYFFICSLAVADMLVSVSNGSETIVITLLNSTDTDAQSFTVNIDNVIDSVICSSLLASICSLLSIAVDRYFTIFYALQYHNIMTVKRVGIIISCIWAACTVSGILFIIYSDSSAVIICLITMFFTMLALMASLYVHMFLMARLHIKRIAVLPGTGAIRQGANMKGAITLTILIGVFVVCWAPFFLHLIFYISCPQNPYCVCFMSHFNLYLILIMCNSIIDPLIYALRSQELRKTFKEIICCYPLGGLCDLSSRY

On to `CCO[C@@H]1CN(C(=O)[C@@H]2CN(c3cccnn3)C[C@H]2c2ccc(F)cc2F)CC[C@@]1(O)c1ccccc1` [Example 13, (3R,4R)-1-{[(3S,4R)-4-(2,4-difluorophenyl)-1-pyridazin-3-ylpyrrolidin-3-yl]carbonyl}-3-ethoxy-4-phenylpiperidin-4-ol], for which the EC50 at MC4 receptor stood at 44 nM. Turning to `CO[C@H]1CN(C(=O)[C@@H]2CN(c3cccnn3)C[C@H]2c2ccc(F)cc2F)CC[C@]1(OC)c1ccccc1` [Example 8, 3-[(3R,4S)-3-(2,4-difluorophenyl)-4-{[(3S,4S)-3,4-dimethoxy-4-phenylpiperidin-1-yl]carbonyl}pyrrolidin-1-yl]pyridazine], the EC50 on MC4 receptor came to 1.5 nM. Regarding `CO[C@H]1CN(C(=O)[C@@H]2CN(c3cccnn3)C[C@H]2c2ccc(F)cc2F)CC[C@]1(OC)c1ccc(F)cc1` [Example 15, 3-[(3R,4S)-3-(2,4-difluorophenyl)-4-{[(3S,4S)-4-(4-fluorophenyl)-3,4-dimethoxypiperidin-1-yl]carbonyl}pyrrolidin-1-yl]pyridazine], the EC50 at MC4 receptor came out at 11.5 nM.

Consider Melanotan II, for which, in data set [1] (13/19 doses, questionnaire, P<0.01 vs placebo), the “increased sexual desire reported (share of doses)” value is on record as 68%. The “subjects with severe nausea” value in data set [1] (dose of 0.025 mg/kg) is given as 12.9%. Further, the “penile erection (number of men)” value in data set [1] (in the absence of sexual stimulation, men with psychogenic and organic ED) was 17 of 20. Also, the “mean duration of Rigiscan tip rigidity >80%” value in data set [1] (penile rigidity monitored for 6 hours using RigiScan) is 41 min.
